# In patent US4124726A, “Anti-inflammatory agent of benzoyl derivative” (priority 1976, dated 1978):
# Legend:
# platelet aggregation = test: blood platelet aggregation inhibition, collagen as inducer; format: cell-based; settings: 10^-4 mole, rabbit PRP
# Excerpt: Blood platelet aggregation inhibiting effect
# Male rabbits (Japan original white strain 3.3 to 3.6 kg) were anesthetized with Thiopental sodium and blood was sampled from the carotid artery.
# in vivo = settings: mouse, po
# Method: Each sample was dissolved in olive oil or dispersed in 1% Tween 20 aqueous solution.
# [1] = tested on: painful stretchings induced by acetic acid; test: acetic acid induced stretching (analgesic effect); settings: 100 mg/kg oral, 0.7% acetic acid i.p., mice
# Method: Each sample was orally administrated in the dosage of 100 mg/kg before injection of acetic acid.
# carragheenin edema = test: acute carragheenin edema inhibition (anti-inflammatory effect); format: in vivo, male rats; settings: for Anti-inf. (edema inhibition rate): Table 2
# Method: The edema was induced by subcutaneous injection of 1% carraheenin suspension in saline to the hind paws of male rats weighing 150 to 180 g. Each sample was orally given at the dosage of 100 mg/kg just before the inoculation of carragheenin.
# [2] = 100 mg/kg oral, carragheenin edema, rats
SMILES,Blood platelet agg. inh. (percentage inhibition of platelet aggregation) (platelet aggregation),LD50 at 72 h (in vivo),Analgesic (percentage diminution of times of painful stretchings) [1],"anti-inflammatory effect, inhibition rate (ED50), in words (carragheenin edema)","inhibition in vivo at 100 mg/kg (carragheenin edema; Rattus norvegicus, Table 2', 100 mg/kg oral, carragheenin edema, rats, read-out: Anti-inf.)","Anti-inf. (carragheenin edema; Table 2', 100 mg/kg oral, carragheenin edema, rats)",Anti-inf. (edema inhibition rate) (carragheenin edema; [2])
CCCCCCCCc1ccc(C(=O)c2ccccc2)cc1 [compound 26],3.1%,10000 mg/kg,35.9%,,,,
Cc1ccc(C(=O)c2ccccc2)c(C)c1C [compound 31],18.2%,1500 mg/kg,9.5%,,,,
CCCc1ccc(C(=O)c2ccc(C)cc2)cc1 [compound 34],16.4%,5000 mg/kg,12.1%,,,,
CCCCCCc1ccc(C(=O)c2ccccc2)cc1 [compound 24],10.5%,6000 mg/kg,47.7%,,,,
O=C(c1ccc(F)cc1)c1ccc(F)cc1 [compound 114],26.8%,2000 mg/kg,18.3%,,,,
"CCCCc1ccc(C(=O)c2ccccc2)cc1 [Active ingredient No. 19, 4-n-butyl benzophenone]",,,,especially high inhibition rate,,,
CCc1ccc(C(=O)c2ccc(CC)cc2)cc1 [compound 106],20.3%,1000 mg/kg,7.3%,,,,
CCCc1ccc(C(=O)Cc2ccccc2)cc1 [compound 49],28.5%,8000 mg/kg,18.2%,,,,
CCc1ccc(C(=O)c2ccc(C)cc2)cc1 [compound 33],20.5%,3000 mg/kg,15.5%,,,,
O=C(c1ccccc1)c1ccccc1C(=O)c1ccccc1 [compound 113],25.8%,4000 mg/kg,14.5%,,,,
CCCCOc1ccc(C(=O)c2ccccc2)cc1 [compound 42],4.4%,3000 mg/kg,26.8%,,,,
COc1ccc(C(=O)c2ccccc2)c(OC)c1 [compound 74],18.5%,5000 mg/kg,24.2%,,,,
CCCCc1ccc(C(=O)c2ccc(CCC)cc2)cc1 [compound 98],28.3%,4000 mg/kg,16.4%,,,,
CCCCCCc1ccc(C(=O)c2c(C)cc(C)cc2C)cc1 [compound 103],29.5%,500 mg/kg,14.2%,,,,
Cc1cc(C)c(C(=O)c2ccccc2)c(C)c1C [compound 79],26.8%,1000 mg/kg,20.8%,,,,
Cc1ccc(C(=O)c2ccccc2)cc1C [compound 72],28.7%,1000 mg/kg,23.4%,,,,
CCc1ccc(C(=O)c2ccccc2)cc1 [compound 66],20.7%,2000 mg/kg,15.7%,,,,
"O=C(c1ccccc1)c1ccccc1F [Active ingredient No. 15, 2-fluorobenzophenone]",,,,especially high inhibition rate,,,
"CCCCc1ccc(C(=O)c2ccccc2F)cc1 [Active ingredient No. 8, 4-n-butyl-2'-fluorobenzophenone]",,,,especially high inhibition rate,,,
CCCCc1ccc(C(=O)c2ccc(Cl)cc2)cc1 [compound 64],28.5%,3000 mg/kg,6.6%,,,,
CCCCCCCc1ccc(C(=O)c2ccccc2)cc1 [compound 25],7.8%,8000 mg/kg,48.6%,,,,

SMILES,Blood platelet agg. inh. (percentage inhibition of platelet aggregation) (platelet aggregation),LD50 at 72 h (in vivo),Analgesic (percentage diminution of times of painful stretchings) [1],"anti-inflammatory effect, inhibition rate (ED50), in words (carragheenin edema)","inhibition in vivo at 100 mg/kg (carragheenin edema; Rattus norvegicus, Table 2', 100 mg/kg oral, carragheenin edema, rats, read-out: Anti-inf.)","Anti-inf. (carragheenin edema; Table 2', 100 mg/kg oral, carragheenin edema, rats)",Anti-inf. (edema inhibition rate) (carragheenin edema; [2])
CCCC(C)c1ccc(C(=O)c2ccccc2F)cc1 (centres unmarked) [compound 121],,3000 mg/kg,,,64.5%,,
"CCCCCc1ccc(C(=O)c2ccccc2F)cc1 [Active ingredient No. 9, 2-Fluoro-4'-n-amyl-benzophenone]",,,,especially high inhibition rate,,,
COc1ccc(OC)c(C(=O)c2ccccc2)c1 [compound 75],30.7%,5000 mg/kg,22.0%,,,,
CCCCCc1ccc(C(=O)c2ccccc2C)cc1 [compound 41],14.4%,3000 mg/kg,14.6%,,,,
CCCCCCCCc1ccc(C(=O)c2cccc(I)c2)cc1 [compound 161],,5000 mg/kg,,,,20.9,
CCCCCc1ccc(C(=O)c2cccc(C)c2)cc1 [compound 89],22.6%,10000 mg/kg,4.3%,,,,
CCc1ccc(C(=O)c2ccc(OC)cc2)cc1 [compound 107],20.3%,,,,,,20.3%
CCCCCc1ccc(C(=O)c2ccccc2)cc1 [compound 23],13.8%,5000 mg/kg,10.1%,,,,
CCCCCc1ccc(C(=O)c2ccc(O)cc2)cc1 [compound 105],24.1%,4000 mg/kg,14.1%,,,,
CCCCc1ccc(C(=O)c2ccc(OC)cc2)cc1 [compound 18],9.3%,2000 mg/kg,20.1%,,,,
CCCCCCCc1ccc(C(=O)c2ccc(C)cc2)cc1 [compound 85],18.7%,,,,,,18.7%
CCCCOc1ccc(C(=O)c2c(C)cc(C)cc2C)cc1 [compound 94],27.9%,500 mg/kg,15.8%,,,,
CCCCCCc1ccc(C(=O)C(=O)c2ccccc2)cc1 [compound 56],20.3%,10000 mg/kg,20.5%,,,,
COc1cc(OC)c(C(=O)c2ccccc2)c(OC)c1 [compound 76],16.2%,2500 mg/kg,13.9%,,,,
CCCc1ccc(C(=O)c2ccc(O)cc2)cc1 [compound 104],25.3%,3000 mg/kg,13.2%,,,,
CCCCCCCCCCc1ccc(C(=O)Cc2ccccc2)cc1 [compound 50],8.7%,> 10000 mg/kg,,,,,
"Cc1cc(C)c(C(=O)c2ccccc2F)c(C)c1 [Active ingredient No. 11, 2-Fluoro-2',4',6'-trimethyl-benzophenone]",,,,especially high inhibition rate,,,
CCCCCCc1ccc(C(=O)c2ccc(C)cc2)cc1 [compound 36],15.1%,> 10000 mg/kg,,,,,
CC(C)Cc1ccc(C(=O)c2ccccc2)cc1 [compound 67],18.5%,2000 mg/kg,19.1%,,,,
CCCCCc1ccc(C(=O)c2ccc(CCC)cc2)cc1 [compound 99],29.5%,5000 mg/kg,15.5%,,,,
